Assay results from ChEMBL document CHEMBL4417636, “Small molecule inhibitors of pendrin ion exchange and pharmaceutical compositions” (2017).
Active and inactive are the calls of the source. The rule behind the calls is not given here.

Legend:
Homo sapiens [1] = species on record: Homo sapiens; assay: Inhibition of ENaC in human bronchial epithelial cells assessed as effect on short-circuit current at 25 uM pre-incubated for 30 mins
Homo sapiens [2] = species on record: Homo sapiens; assay: Inhibition of CaCC in human bronchial epithelial cells assessed as effect on short-circuit current at 25 uM pre-incubated for 30 mins
Homo sapiens [3] = species on record: Homo sapiens; assay: Effect on gluconate gradient-induced Cl(-) efflux in NHBE cells at 25 uM; format: functional, cell-based
Homo sapiens [4] = species on record: Homo sapiens; assay: Effect on airway surface liquid depth in NHBE cells at 25 uM by rhodamine B-dextran fluorescence based confocal microscopy; format: functional, cell-based
Pendrin (Homo sapiens) = target: T1, Pendrin (Homo sapiens) (UniProt O43511); assay: Inhibition of pendrin in human bronchial CFBE assessed as increase in airway surface liquid depth at 25 uM by rhodamine B-dextran fluorescence based confocal microscopy (reference value: -16 um)
T1 sequence (whole entry): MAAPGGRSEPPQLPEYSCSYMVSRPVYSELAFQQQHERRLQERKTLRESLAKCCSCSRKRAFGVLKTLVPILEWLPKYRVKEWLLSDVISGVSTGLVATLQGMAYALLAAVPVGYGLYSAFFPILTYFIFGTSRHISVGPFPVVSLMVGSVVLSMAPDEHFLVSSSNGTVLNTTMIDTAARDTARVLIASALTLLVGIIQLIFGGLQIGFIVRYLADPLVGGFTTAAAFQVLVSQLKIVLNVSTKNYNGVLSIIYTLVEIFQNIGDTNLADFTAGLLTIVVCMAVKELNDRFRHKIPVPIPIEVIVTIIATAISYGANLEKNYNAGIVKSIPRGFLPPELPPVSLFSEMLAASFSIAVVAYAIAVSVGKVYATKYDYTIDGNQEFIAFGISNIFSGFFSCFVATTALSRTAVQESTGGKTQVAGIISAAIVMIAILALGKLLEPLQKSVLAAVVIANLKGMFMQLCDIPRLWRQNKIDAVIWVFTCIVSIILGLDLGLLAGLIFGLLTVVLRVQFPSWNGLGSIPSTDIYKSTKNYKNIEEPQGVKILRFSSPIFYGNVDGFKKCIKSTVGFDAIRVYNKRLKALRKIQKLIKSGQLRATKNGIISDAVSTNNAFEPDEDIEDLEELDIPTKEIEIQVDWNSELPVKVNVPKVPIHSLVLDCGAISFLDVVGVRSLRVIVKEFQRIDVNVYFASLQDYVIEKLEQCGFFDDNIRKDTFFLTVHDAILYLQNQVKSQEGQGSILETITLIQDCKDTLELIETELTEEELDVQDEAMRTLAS

Pendrin = target: T2, Pendrin (Homo sapiens, UniProt O43511); assay: Inhibition of human pendrin expressed in FRT cells co-expressing EYFP-HIF assessed as reduction in pendrin-mediated C17NO3(-) exchange incubated for 10 mins by pH-sensitive fluorescent probe BCECF-AM based fluorescence assay relative to control; format: cell-based
T2 sequence (O43511 whole entry): T1 sequence (whole entry)

Pendrin (Mus musculus) = target: T3, Pendrin (Mus musculus) (UniProt Q9R155); assay: Inhibition of mouse pendrin expressed in FRT cells co-expressing YFP-HIF assessed as reduction in pendrin-mediated exchange of Cl(-) with I(-) by pH-sensitive fluorescent probe BCECF-AM based fluorescence assay relative to control; format: cell-based
T3 sequence (whole entry): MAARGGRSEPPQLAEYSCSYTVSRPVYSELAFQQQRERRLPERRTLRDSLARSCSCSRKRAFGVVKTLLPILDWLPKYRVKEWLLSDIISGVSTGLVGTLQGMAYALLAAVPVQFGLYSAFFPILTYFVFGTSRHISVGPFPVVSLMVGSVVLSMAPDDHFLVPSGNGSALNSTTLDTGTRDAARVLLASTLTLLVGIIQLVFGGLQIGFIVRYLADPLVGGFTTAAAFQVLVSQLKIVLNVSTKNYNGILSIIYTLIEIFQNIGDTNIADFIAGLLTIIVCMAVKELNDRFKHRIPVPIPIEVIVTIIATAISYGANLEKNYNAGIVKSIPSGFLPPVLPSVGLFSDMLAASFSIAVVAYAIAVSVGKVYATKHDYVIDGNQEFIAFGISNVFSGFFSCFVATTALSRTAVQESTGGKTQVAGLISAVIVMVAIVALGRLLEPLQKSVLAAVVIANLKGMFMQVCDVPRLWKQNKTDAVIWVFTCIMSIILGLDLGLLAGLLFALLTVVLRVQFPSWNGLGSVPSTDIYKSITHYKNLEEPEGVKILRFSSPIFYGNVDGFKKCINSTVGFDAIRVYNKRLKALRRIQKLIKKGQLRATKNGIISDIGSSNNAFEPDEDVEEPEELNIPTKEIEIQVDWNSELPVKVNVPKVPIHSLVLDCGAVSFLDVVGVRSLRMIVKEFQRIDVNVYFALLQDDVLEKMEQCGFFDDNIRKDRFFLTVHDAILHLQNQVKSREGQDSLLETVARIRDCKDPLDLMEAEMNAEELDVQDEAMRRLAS

[5] = target: T4, Chloride anion exchanger (Mus musculus) (UniProt Q9WVC8); assay: Inhibition of myc-tagged mouse Slc26a3 expressed in COS7 co-expressing EYFP-HIF assessed as effect on SCN(-) gradient at 25 uM by YFP-based fluorescence quenching assay
T4 sequence (whole entry): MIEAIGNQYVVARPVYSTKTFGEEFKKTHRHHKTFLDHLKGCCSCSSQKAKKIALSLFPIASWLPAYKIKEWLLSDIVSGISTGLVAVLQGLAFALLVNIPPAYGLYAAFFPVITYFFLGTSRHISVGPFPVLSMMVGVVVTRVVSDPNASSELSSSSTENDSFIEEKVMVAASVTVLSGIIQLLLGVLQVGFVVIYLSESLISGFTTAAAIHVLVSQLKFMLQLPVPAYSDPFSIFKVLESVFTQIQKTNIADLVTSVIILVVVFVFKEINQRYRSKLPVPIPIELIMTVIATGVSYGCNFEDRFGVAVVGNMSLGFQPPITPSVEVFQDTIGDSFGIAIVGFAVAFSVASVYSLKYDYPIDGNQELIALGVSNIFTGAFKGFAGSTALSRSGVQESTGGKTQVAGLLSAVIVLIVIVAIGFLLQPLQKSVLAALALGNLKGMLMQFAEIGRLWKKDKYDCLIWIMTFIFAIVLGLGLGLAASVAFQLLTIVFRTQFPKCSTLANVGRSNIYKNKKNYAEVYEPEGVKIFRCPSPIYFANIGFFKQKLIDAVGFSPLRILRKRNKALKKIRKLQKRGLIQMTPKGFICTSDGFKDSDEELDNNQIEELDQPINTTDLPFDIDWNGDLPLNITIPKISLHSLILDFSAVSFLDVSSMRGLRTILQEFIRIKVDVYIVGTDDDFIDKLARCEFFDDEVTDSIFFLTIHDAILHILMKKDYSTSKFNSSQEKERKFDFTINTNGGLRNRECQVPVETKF

Mus musculus [6] = assay: Potentiation of 5 to 50 mg/kg, ip furosemide-induced acute diuretic action in CD1 mouse assessed as increase in urine volume at 50 mg/kg, ip relative to control; format: functional, organism-based
Mus musculus [7] = assay: Potentiation of 20 mg/kg, ip furosemide-induced acute diuretic action in CD1 mouse assessed as induction of metabolic alkalosis at 10 mg/kg, ip; format: functional, organism-based

Row | Structure (SMILES) | inhibition (Homo sapiens [1]) | inhibition (Homo sapiens [2]) | Activity (Homo sapiens [3]) | Activity (Homo sapiens [4]) | Activity (Pendrin (Homo sapiens)) | IC50 (Pendrin) | inhibition (Pendrin (Mus musculus)) | inhibition [5] | Activity (Mus musculus [6]) | Activity (Mus musculus [7])
1 | Cn1nc(COc2cccc(F)c2)c2c1CCN(C(=O)Nc1ccc(Cl)cc1)C2 | inactive | inactive | inactive | inactive | -8 µm | – | – | – | – | –
2 | Cc1n[nH]c(-c2cc(S(=O)(=O)NC3CCCc4ccccc43)c(C)s2)c1C (stereo not given) | – | – | – | – | – | 5 µM | Dose-dependent effect | inactive | Active | Active
